According to patent US11191265B2, “Method of reducing crop damage” (Bayer CropScience Aktiengesellschaft, priority 2016, dated 2021):

What was measured:
Type in all cases: in vivo
[1] = test system: Wheat (winter wheat, TRZAW); assay: Prior-art method: post-emergence herbicide with or without safener in tank mix, greenhouse pot test, crop damage scored visually; conditions: 20 days after post-emergence application at BBCH11; herbicide 300 g/ha; safener (mefenpyr-diethyl) 200 g/ha in tank mix where combined; vs untreated controls; mean of at least 3 replicates
Text: 1. Method as Used in the Prior Art
(§1) Wheat seeds (winter wheat, TRZAW) were placed in sandy loam soil in pots of a diameter of 7 cm, covered with soil and cultivated in a greenhouse under good growth conditions.
Post-emergence application was done when the plants had reached growth stage BBCH11 (BBCH is the international coding system for the growth stage of crops and weeds).
(§2) The safener (mefenpyr-diethyl) was formulated as wettable powder (WP).
(§3) The compounds were sprayed onto the green parts of the plants as an aqueous suspension at an equivalent water application rate of 300 l/ha with addition of 0.2% wetting agent (Agrotin).
(§4) The combination of herbicide and safener was applied as a tank mix.
(§5) After application, the test plants were kept in the greenhouse under good growth conditions.
(§6) Values in the table below are mean values from at least 3 replicates.

[2] = test system: Wheat (winter wheat, TRZAW); assay: Method A: safener seed treatment, then post-emergence herbicide, greenhouse pot test, crop damage scored visually; conditions: 20 days after post-emergence application at BBCH11; herbicide 300 g/ha; safener (mefenpyr-diethyl) seed treatment 0.5 g/kg where combined; vs untreated controls; mean of at least 3 replicates
Description: as §1
(§7) For the safener seed treatment, sufficient seeds were weighed into screw top glass bottles approximately twice the volume of the seeds.
(§8) The safener (mefenpyr-diethyl, formulated as wettable powder; WP) was weighed out so that the required rates (g a.i./kg seed) would be obtained, dissolved in water (1 ml water per 10 g of seeds), and added to the seeds to produce a slurry.
(§9) The bottles were capped and then placed in an overhead shaker (set at medium speed for up to 1 hour) so that the seeds were evenly coated with the slurry. The bottles were uncapped and the seeds were sown as described above.
Post-emergence application of the herbicide was done when the plants had reached growth stage BBCH11.
as §5, §6

[3] = test system: Wheat (winter wheat, TRZAW); assay: Method C: safener seed treatment, then post-emergence herbicide plus safener tank mix, greenhouse pot test, crop damage scored visually; conditions: 20 days after post-emergence application at BBCH11; herbicide 300 g/ha; safener (mefenpyr-diethyl) seed treatment 0.5 g/kg and 200 g/ha in tank mix where combined; vs untreated controls; mean of at least 3 replicates
Description: as §1, §7, §8, §9
Post-emergence application was done when the plants had reached growth stage BBCH11.
as §2, §3, §4, §5, §6

[4] = test system: Wheat (winter wheat, TRZAW); assay: Method D: safener seed treatment, then pre-emergence herbicide plus safener tank mix, greenhouse pot test, crop damage scored visually; conditions: 21 days after pre-emergence application to the soil surface; herbicide 300 g/ha; safener (mefenpyr-diethyl) seed treatment 0.5 g/kg and 200 g/ha in tank mix where combined; vs untreated controls; mean of at least 3 replicates
Description: as §1, §7, §8, §9
The compounds were sprayed to the soil surface as an aqueous suspension at an equivalent water application rate of 300 l/ha with addition of 0.2% wetting agent (Agrotin).
as §4, §5, §6

CC1(C)CON(Cc2ccc(Cl)cc2Cl)C1=O [Herbicide post-em., 2-(2,4-dichlorophenyl)methyl-4,4-dimethyl-3-isoxazolidinone]
% chlorosis [1]: 40% | % growth depression [1]: 40% | % chlorosis [2]: 40% | % growth depression [2]: 40% | % chlorosis [3]: 40% | % growth depression [3]: 40% | % chlorosis [4]: 17% | % growth depression [4]: 27%
